Counter-ions that a name gives are not always drawn.
What was measured:
[1] = tested on: HepG2 cells originating from human liver cancer; experiment: EPO production in HepG2 cells (EPO ELISA of culture supernatant, 4% oxygen, 48 hrs); assay type: cell-based; conditions: test compound 3 μM, oxygen 4%, non-stimulated state = 100%, read-out: EPO production amount, % of control (3 μM)
Protocol: HepG2 cells originating from human liver cancer were seeded at a density of 1×10^4 cells per well on a 24-well plate by using minimum essential medium (MEM, manufactured by Sigma) comprising 10% bovine fetal serum. Next day, the medium was exchanged with Dulbecco's modified eagle medium (DMEM, manufactured by Sigma) comprising 10% bovine fetal serum lacking phenol red. Then, the test compound dissolved in DMSO was added thereto to obtain the final concentration of 3 μM or 10 μM while having 400 μl of the medium per well. The cells were incubated for 48 hrs in a CO2 incubator which had been adjusted to have oxygen concentration of 4%, followed by collecting the culture supernatant. The EPO concentration in the culture supernatant was immediately measured by using EPO ELISA kit (manufactured by Roche Diagnostics K.K.). Specific procedures were carried out according to the manufacturer's protocol included in the kit.
When EPO production amount in non-stimulated state, i.e., without addition of any compound, was 100%, the EPO production amount induced by each compound was calculated (% of control).

[2] = tested on: K562 cells, human proerythroblast cells; experiment: Hemoglobin production in K562 cells (fluorescence of the porphyrin ring); assay type: cell-based; conditions: 144 h, test compound 6 μM, 3+3 days, non-stimulated state = 100%, read-out: production amount of hemoglobin, % of control (6 μM)
Protocol: K562 cells (obtained from ATCC), which are human proerythroblast cells, were seeded at a density of 1×10^5 cells/1 mL on a 24-well plate by using complete medium (RPMI-1640 medium comprising 10% bovine fetal serum). After adding the test compound having 1000× concentration (1 μL), the cells were incubated for three days in a CO2 incubator (37° C., 5% CO2). After exchanging the medium, the cells were further incubated for three days. Then, the cells were collected and counted. After adjusting them to have 3×10^5 cells, the amount of hemoglobin produced in the cells was determined by measuring fluorescence of the porphyrin ring. Specifically, the cells which had been collected by centrifugation were suspended in 2 M oxalic acid solution (500 μL) and boiled for 30 minutes under heating. After cooling the cells, the fluorescence intensity was measured by Fluorescence micro plate reader (Spectra MAX GeminiEM, manufactured by Molecular Devices Corporation) ([…]). When hemoglobin amount in non-stimulated state, i.e., without addition of any compound, was 100%, the production amount of hemoglobin induced by each compound was calculated (% of control).

CC(=O)N1c2ccccc2[C@H](Oc2ccc(F)c(F)c2)C[C@@H]1C (relative stereo) [Compound 31, cis-1-acetyl-4-(3,4-difluorophenoxy)-2-methyl-1,2,3,4-tetrahydroquinoline]
activity at 3 µM [1]: 302%
activity at 6 µM [2]: 156%

CC(=O)N1c2ccc(F)cc2[C@H](Oc2ccc(F)cc2)C[C@@H]1C (relative stereo) [Compound 34, cis-1-acetyl-4-(4-fluorophenoxy)-6-fluoro-2-methyl-1,2,3,4-tetrahydroquinoline]
activity at 3 µM [1]: 288%
activity at 6 µM [2]: 257%

CC(=O)N1c2ccccc2[C@H](OCc2ccccc2)C[C@@H]1C (relative stereo) [Compound 36, cis-1-acetyl-2-methyl-4-benzyloxy-1,2,3,4-tetrahydroquinoline]
activity at 3 µM [1]: 114%
activity at 6 µM [2]: 83%

CCOC(=O)c1ccc2c(c1)[C@H](Nc1ccc(Cl)cc1)C[C@H](C)N2C(C)=O (relative stereo) [Compound 41, ethyl cis-1-acetyl-4-[(4-chlorophenyl)amino]-2-methyl-1,2,3,4-tetrahydroquinoline-6-carboxylate]
activity at 3 µM [1]: 119%
activity at 6 µM [2]: 529%

CC(=O)N1c2ccc(C(N)=O)cc2[C@H](Oc2ccc(F)cc2)C[C@@H]1C (relative stereo) [Compound 54, cis-1-acetyl-4-(4-fluorophenoxy)-2-methyl-1,2,3,4-tetrahydroquinoline-6-carboxamide]
activity at 3 µM [1]: 148%
activity at 6 µM [2]: 186%

CC(=O)N1c2cc(F)ccc2[C@H](Oc2ccc(F)cc2)C[C@@H]1C (relative stereo) [Compound 56, cis-1-acetyl-7-fluoro-4-(4-fluorophenoxy)-2-methyl-1,2,3,4-tetrahydroquinoline]
activity at 3 µM [1]: 213%
activity at 6 µM [2]: 119%

CC(=O)N1c2ccccc2[C@H](Oc2ccc(O)cc2)C[C@@H]1C (relative stereo) [Compound 57, cis-1-acetyl-4-(4-hydroxyphenoxy)-2-methyl-1,2,3,4-tetrahydroquinoline]
activity at 3 µM [1]: 251%
activity at 6 µM [2]: 221%

CC(=O)N1c2ccccc2[C@H](Oc2cc(F)cc(F)c2)C[C@@H]1C (relative stereo) [Compound 62, cis-1-acetyl-4-(3,5-difluorophenoxy)-2-methyl-1,2,3,4-tetrahydroquinoline]
activity at 3 µM [1]: 193%
activity at 6 µM [2]: 168%

CC(=O)N1CCN(c2ccc(N[C@@H]3C[C@H](C)N(C(C)=O)c4ccccc43)cc2)CC1 (relative stereo) [Compound 77, cis-1-acetyl-4-{[4-(4-acetylpiperazinyl)phenyl]amino}-2-methyl-1,2,3,4-tetrahydroquinoline]
activity at 3 µM [1]: 221%
activity at 6 µM [2]: 120%

CC(=O)N1c2ccccc2[C@H](Nc2ccc(N3CCN(S(C)(=O)=O)CC3)cc2)C[C@@H]1C (relative stereo) [Compound 78, cis-1-acetyl-4-{[4-(4-methanesulfonylpiperazinyl)phenyl]amino}-2-methyl-1,2,3,4-tetrahydroquinoline]
activity at 3 µM [1]: 217%
activity at 6 µM [2]: 210%

CC(=O)N1CCN(c2ccc3c(c2)[C@H](Nc2ccc(Cl)cc2)C[C@H](C)N3C(C)=O)CC1 (relative stereo) [Compound 79, cis-1-acetyl-6-[(4-acetyl)piperazino]-4-[(4-chlorophenyl)amino]-2-methyl-1,2,3,4-tetrahydroquinoline]
activity at 3 µM [1]: 476%
activity at 6 µM [2]: 186%

CC(=O)N1c2ccc(C(N)=O)cc2[C@H](Nc2ccc(CC(=O)O)cc2)C[C@@H]1C (relative stereo) [Compound 105, cis-1-acetyl-4-[(4-carboxymethylphenyl)amino]-2-methyl-1,2,3,4-tetrahydroquinoline-6-carboxamide]
activity at 3 µM [1]: 245%
activity at 6 µM [2]: 358%

CC(=O)N1c2ccc(CO)cc2[C@H](Nc2ccc(Cl)cc2)C[C@@H]1C (relative stereo) [Compound 121, cis-1-acetyl-4-[(4-chlorophenyl)amino]-6-hydroxymethyl-2-methyl-1,2,3,4-tetrahydroquinoline]
activity at 3 µM [1]: 222%
activity at 6 µM [2]: 149%

CC(=O)N1c2ccccc2C(Nc2ccccc2)CC1C (centres unmarked) [Compound 1, 1-acetyl-2-methyl-4-phenylamino-1,2,3,4-tetrahydroquinoline]
activity at 3 µM [1]: 235%
activity at 6 µM [2]: 575%

CCC(=O)N1c2ccccc2C(Nc2ccccc2)CC1C (centres unmarked) [Compound 3, 2-methyl-4-phenylamino-1-propionyl-1,2,3,4-tetrahydroquinoline]
activity at 3 µM [1]: 187%
activity at 6 µM [2]: 912%

CC(=O)N1c2ccc(F)cc2C(Nc2ccc(F)cc2)CC1C (centres unmarked) [Compound 5, 1-acetyl-6-fluoro-4-[(4-fluorophenyl)amino]-2-methyl-1,2,3,4-tetrahydroquinoline]
activity at 3 µM [1]: 205%
activity at 6 µM [2]: 245%

CC(=O)N1c2ccccc2C(Nc2ccc(Cl)cc2)CC1C (centres unmarked) [Compound 8, 1-acetyl-4-[(4-chlorophenyl)amino]-2-methyl-1,2,3,4-tetrahydroquinoline]
activity at 3 µM [1]: 248%
activity at 6 µM [2]: 412%

CC(=O)N1c2ccccc2C(Nc2ccc(C#N)cc2)CC1C (centres unmarked) [Compound 9, 1-acetyl-4-[(4-cyanophenyl)amino]-2-methyl-1,2,3,4-tetrahydroquinoline]
activity at 3 µM [1]: 405%
activity at 6 µM [2]: 406%

COc1ccc(NC2CC(C)N(C(C)=O)c3ccccc32)cc1 (centres unmarked) [Compound 10, 1-acetyl-4-[(4-methoxyphenyl)amino]-2-methyl-1,2,3,4-tetrahydroquinoline]
activity at 3 µM [1]: 172%
activity at 6 µM [2]: 409%

COc1cccc(NC2CC(C)N(C(C)=O)c3ccccc32)c1 (centres unmarked) [Compound 11, 1-acetyl-4-[(3-methoxyphenyl)amino]-2-methyl-1,2,3,4-tetrahydroquinoline]
activity at 3 µM [1]: 163%
activity at 6 µM [2]: 361%

COc1ccccc1NC1CC(C)N(C(C)=O)c2ccccc21 (centres unmarked) [Compound 12, 1-acetyl-4-[(2-methoxyphenyl)amino]-2-methyl-1,2,3,4-tetrahydroquinoline]
activity at 3 µM [1]: 197%
activity at 6 µM [2]: 398%

CC(=O)N1c2ccc(Br)cc2C(Nc2ccccc2)CC1C (centres unmarked) [Compound 13, 1-acetyl-6-bromo-2-methyl-4-phenylamino-1,2,3,4-tetrahydroquinoline]
activity at 3 µM [1]: 229%
activity at 6 µM [2]: 365%

CC(=O)N1c2ccc(C#N)cc2C(Nc2ccccc2)CC1C (centres unmarked) [Compound 14, 1-acetyl-6-cyano-2-methyl-4-phenylamino-1,2,3,4-tetrahydroquinoline]
activity at 3 µM [1]: 257%
activity at 6 µM [2]: 440%

CC(=O)N1c2ccccc2C(Nc2ccc(F)cc2)CC1C (centres unmarked) [Compound 15, 1-acetyl-4-[(4-fluorophenyl)amino]-2-methyl-1,2,3,4-tetrahydroquinoline]
activity at 3 µM [1]: 348%
activity at 6 µM [2]: 409%

CC(=O)N1c2ccccc2C(Nc2cccc(F)c2)CC1C (centres unmarked) [Compound 16, 1-acetyl-4-[(3-fluorophenyl)amino]-2-methyl-1,2,3,4-tetrahydroquinoline]
activity at 3 µM [1]: 288%
activity at 6 µM [2]: 416%

CC(=O)N1c2ccccc2C(Nc2ccc(Oc3ccccc3)cc2)CC1C (centres unmarked) [Compound 17, 1-acetyl-4-[(4-phenoxyphenyl)amino]-2-methyl-1,2,3,4-tetrahydroquinoline]
activity at 3 µM [1]: 172%
activity at 6 µM [2]: 517%

CC(=O)N1c2ccccc2C(Nc2ccc(OC(C)C)cc2)CC1C (stereo not drawn) [Compound 18, cis-1-acetyl-4-[(4-isopropoxyphenyl)amino]-2-methyl-1,2,3,4-tetrahydroquinoline.hydrochloride]
activity at 3 µM [1]: 178%
activity at 6 µM [2]: 374%

CC(=O)N1c2ccccc2C(Nc2ccc(N3CCOCC3)cc2)CC1C (stereo not drawn) [Compound 19, cis-1-acetyl-2-methyl-4-[(4-morpholinophenyl)amino]-1,2,3,4-tetrahydroquinoline.hydrochloride]
activity at 3 µM [1]: 191%
activity at 6 µM [2]: 284%

CC(=O)N1c2ccccc2C(Nc2ccc(N(C)C)cc2)CC1C (centres unmarked) [Compound 20, 1-acetyl-4-[(4-N,N-dimethylaminophenyl)amino]-2-methyl-1,2,3,4-tetrahydroquinoline.2 hydrochloride]
activity at 3 µM [1]: 174%
activity at 6 µM [2]: 117%

CC(=O)N1c2ccccc2C(Nc2ccc(C(C)C)cc2)CC1C (centres unmarked) [Compound 21, 1-acetyl-4-[(4-isopropylphenyl)amino]-2-methyl-1,2,3,4-tetrahydroquinoline]
activity at 3 µM [1]: 231%
activity at 6 µM [2]: 301%

CC(=O)N1c2ccccc2C(Nc2ccc(CO)cc2)CC1C (centres unmarked) [Compound 38, 1-acetyl-4-[(4-hydroxymethylphenyl)amino]-2-methyl-1,2,3,4-tetrahydroquinoline]
activity at 3 µM [1]: 201%
activity at 6 µM [2]: 190%
